Laboratory results from US12484574B2, “Agent for promoting undifferentiation and cryoprotective agent using aprotic zwitterion” (JAPAN SCIENCE AND TECHNOLOGY AGENCY, priority 2019, dated 2025).
“Also recorded” adds a separate entry of the source.

Tests used:
[1] = test system: Mouse fibroblasts C57BL/6-GFP; assay: Cell freezing, rapid freezing method, viable cell count (Example 4); type: cell-based
Description: (§1) Human ES cell and human iPS cell cryopreservation solution DAP213 (manufactured by ReproCELL Inc.) • 75% by weight of OE2imC3C/H2O • 50% by weight of OE2imC3C/H2O • 25% by weight of OE2imC3C/H2O
(§2) The cells to be frozen (two types) were centrifugally recovered by trypsin treatment and diluted with Dulbecco's modified Eagle medium (DMEM), and each cell concentration was measured. The types and cell concentrations of the cells are as follows. • Human skin fibroblasts 8.2×10^5 cells/100 μl (N=3) • Mouse fibroblasts C57BL/6-GFP 1.2×10^6 cells/100 μl (N=3)
(§3) Subsequently, the cells of each type were dispensed at 1 ml/tube to 1.5 ml tubes, centrifuged, suspended in 100 μl each of the cryopreservation solutions described above, and immediately thereafter rapidly frozen in liquid nitrogen within 10 to 15 seconds. Then, the cells were preserved for 3 days in a liquid nitrogen tank.
(§4) The cryopreservation vial was rapidly thawed with 1 ml of a medium, and a supernatant was removed by centrifugation. Subsequently, the cells obtained by centrifugation were resuspended in a medium, followed by the measurement of a viable cell count. Then, culture was started in a 6-well plate.
(§5) 24 hours after the start of culture, the viable cell count was measured.

Human skin fibroblasts [2] = assay: as above; type: cell-based
Description: as §1, §2, §3, §4, §5

Human skin fibroblasts [3] = assay: Cell freezing, slow freezing method, viable cell count after thawing (Examples 2, 3); type: cell-based; conditions: 5% by weight in H2O; frozen to −80° C. at −1° C./min; FIG. 3, FIG. 6
Description: (§6) CultureSure® cryopreservation solution (manufactured by FUJIFILM Wako Pure Chemical Corp.) (hereinafter, referred to as “FM”) • H2O • 5% by weight of DMSO/H2O • 5% by weight of OE2imC3C/H2O
as §2, with “5.0×10^5” for “8.2×10^5”, “μl” for “μl (N=3)”, “5.0×10^5” for “1.2×10^6”
(§7) Subsequently, the cells of each type were dispensed at 1 ml/tube to 1.5 ml tubes, centrifuged, suspended in 100 μl each of the cryopreservation solutions described above, and frozen at a cooling temperature of −80° C. at a cooling rate of −1° C./min using a cell freezing container Mr. Frosty®.
1 ml of a medium was added to the cryopreservation vial for thawing, and a supernatant was removed by centrifugation. Subsequently, the cells obtained by centrifugation were resuspended in a medium, followed by the measurement of a viable cell count. Then, culture was started in a 6-well plate. […]
The cells to be frozen were centrifugally recovered by trypsin treatment and diluted with Dulbecco's modified Eagle medium (DMEM), and the cell concentration was measured. […]

[4] = test system: Human skin fibroblasts / Mouse fibroblasts C57BL/6-GFP; assay: Cell state 24 hours after start of culture, slow freezing method (microscope); type: cell-based; conditions: 5% by weight in H2O, thawed, cultured 24 hours, cell type of FIG. 5 not stated
Description: as §2, with “5.0×10^5” for “8.2×10^5”, “μl” for “μl (N=3)”, “5.0×10^5” for “1.2×10^6”
as §7
(§8) 1 ml of a medium was added to the cryopreservation vial for thawing, and a supernatant was removed by centrifugation. Subsequently, the cells obtained by centrifugation were resuspended in a medium, followed by the measurement of a viable cell count. Then, culture was started in a 6-well plate.
24 hours after the start of culture, the sample was fixed in 4% paraformaldehyde (PFA) and observed under a microscope.

Wild-type zebrafish AB* = assay: Influence on development of zebrafish; type: in vivo; conditions: fertilized eggs cultured 1.5 to 24 hours
Description: All experiments were conducted based on a protocol approved by the animal experiment committee of Kanazawa University. Wild-type zebrafish AB* was raised at 28.5° C. with 14-hour light/10-hour dark cycles in a circulating water system. The medium used was E3 medium (5 mM NaCl, 0.17 mM KCl, 0.33 mM CaCl2, 0.33 mM MgSO4). The medium was supplemented with 1%, 2%, 5% or 10% DMSO or HLS (OE2imC3C). For each test group, eggs were fertilized and then cultured for 1.5 to 24 hours. The embryos thus cultured were washed with E3 medium twice and treated with 1-phenyl-2-thiourea (FUJIFILM Wako Pure Chemical Corp.) in order to prevent pigmentation. The embryos were stained with 0.6 mg/mL o-dianisidine (Tokyo Chemical Industry Co., Ltd.) for 15 minutes and fixed in 4% paraformaldehyde (FUJIFILM Wako Pure Chemical Corp.). The embryos were washed with phosphate-buffered saline containing 0.1% Tween (Sigma-Aldrich Co. LLC) twice. The survival rate was similar between DMSO and HLS (OE2imC3C) up to the 2% addition groups, whereas the survival rate differed largely therebetween in the 5% addition groups.

[5] = test system: Mouse fibroblasts C57BL/6-GFP; assay: Cell freezing, slow freezing method, viable cell count after thawing (Example 2); type: cell-based; conditions: 5% by weight in H2O; frozen to −80° C. at −1° C./min; FIG. 4
Description: as §6
as §2, with “5.0×10^5” for “8.2×10^5”, “μl” for “μl (N=3)”, “5.0×10^5” for “1.2×10^6”
as §7, §8

Q: Which results are given for `COCCOCCn1cc[n+](CCCC(=O)[O-])c1` [OE2imC3C]?
A: viable cell count after thawing ([1]; 75, 50, 25% by weight in H2O, rapidly frozen in liquid nitrogen, preserved 3 days, FIG. 8): comparable to that of the commercially available cryopreservation solution DAP213; also recorded: a lower concentration (25% by weight) offered a higher survival rate of the cells; viable cell count 24 hours after the start of culture ([1]; rapid freezing method, FIG. 10): reached a high value, albeit being inferior to the commercially available cryopreservation solution DAP213; viable cell count after thawing (Human skin fibroblasts [2]; 75, 50, 25% by weight in H2O, rapidly frozen in liquid nitrogen, preserved 3 days, FIG. 7): comparable to that of the commercially available cryopreservation solution DAP213; also recorded: a lower concentration (25% by weight) offered a higher survival rate of the cells; viable cell count 24 hours after the start of culture (Human skin fibroblasts [2]; rapid freezing method, FIG. 9): reached a high value, albeit being inferior to the commercially available cryopreservation solution DAP213; viable cell count after thawing (Human skin fibroblasts [3]): larger viable cell count than that in the case of using conventional DMSO; also recorded: superior to the commercially available cryopreservation solution (FM); cell state 24 hours after the start of culture [4]: confirmed to adhere to the dish bottom; Survival rate (Wild-type zebrafish AB*; Concentration 1 % (v/v for DMSO, w/v for HLS) in E3 medium): 27/27; Survival rate (Wild-type zebrafish AB*; Concentration 2 % (v/v for DMSO, w/v for HLS) in E3 medium): 27/27; Survival rate (Wild-type zebrafish AB*; Concentration 5 % (v/v for DMSO, w/v for HLS) in E3 medium): 27/27; Survival rate (Wild-type zebrafish AB*; Concentration 10 % (v/v for DMSO, w/v for HLS) in E3 medium): 0/27; viable cell count after thawing [5]: larger viable cell count than that in the case of using conventional DMSO
